Laboratory results taken from US12480089B2, “Antiviral treatment comprising Blis containing probiotic products” (BLIS TECHNOLOGIES LIMITED, priority 2020, dated 2025).

What was measured:
Format in all cases: cell-based
[1] = tested on: SARS-CoV-2, USA-WA1/2020 strain
[2] = tested on: influenza B (Brisbane/60/2008 strain); assay: Neutral red CPE assay, influenza B in MDCK cells; conditions: DMEM + trypsin + EDTA, max CPE day 3
Experimental: K12 and M18 were tested for in vitro antiviral activity against RSV (A2 strain) and influenza B (Brisbane/60/2008 strain).
Samples were serially diluted using four 2-fold dilutions in media so that the starting (high) test concentration was 50%. Media for MDCK cells included DMEM+10 U/ml trypsin+1 ug/mL EDTA. Each dilution was added to 5 wells of a 96-well plate with 80-100% confluent cells. Three wells of each dilution were infected with virus, and two wells remained uninfected as toxicity controls. Six wells were infected and untreated as virus controls, and six wells were uninfected and untreated as cell controls. A positive control compound, ribavirin, was tested in parallel. Plates were incubated at 37±2° C., 5% CO2.
Once untreated virus control wells reached maximum CPE on the day indicated in the table below, plates were stained with neutral red dye for approximately 2 hours (±15 minutes). Supernatant dye was removed and wells rinsed with PBS, and the incorporated dye was extracted in 50:50 Sorensen citrate buffer/ethanol for >30 minutes and the optical density was read on a spectrophotometer at 540 nm.
The selective index (SI) is the CC50 divided by EC50.

Influenza A virus H3N2 = assay: Neutral red CPE assay, Influenza A in MDCK cells; conditions: strain samples: resuspension medium DMEM, time to produce antiviral activity 6
Experimental: The antiviral activity of S. salivarius sample preparations were evaluated against severe acute respiratory syndrome coronavirus 2 (SARS-CoV-2) and Influenza A virus H3N2 in neutral red (NR) assays to evaluate inhibition of viral-induced cytopathic effect (CPE).
Neutral red assay: Samples were received frozen on dry ice and stored at −20° C. upon arrival. All 10 samples were serially diluted in test medium using 4 1:2 dilutions so that the starting (high) test concentration was 50% sample. Each dilution was added to 5 wells of a 96-well plate with 80-90% confluent Vero 76 (SARS-CoV-2) or MDCK (Influenza) cells.
Three wells of each dilution were infected with virus, and two wells remained uninfected as toxicity controls. On each plate, six untreated wells were infected as virus controls, and six untreated wells were left uninfected to use as cell controls.
Viruses were diluted to a specific 50% cell culture infectious dose (CCID50) per mL to achieve the lowest possible multiplicity of infection (MOI) that would yield >80% cytopathic effect (CPE) within 3-5 days. […]
Supernatant dye was removed, wells rinsed with PBS, and the incorporated dye was extracted in 50:50 Sorensen citrate buffer/ethanol for >30 minutes and the optical density was read on a spectrophotometer at 540 nm. […]

RSV (A2 strain) = conditions: MA-104, DMEM, max CPE day 6

| Compound | Round 1 virus titer ([1]; 30-minute contact at room temperature, 90% preparation and 10% virus solution, virus control 4.2) [log 10 CCID50 per 0.1 mL] | Round 2 Virus titer ([1]; 30-minute contact at room temperature, 90% preparation and 10% virus stock, virus control 4.0) [log 10 CCID50 per 0.1 mL] | Log Reduction value ([1]; Round 2, compared to virus control) | SI Index [2] | SI Index (Influenza A virus H3N2) | SI Index (RSV (A2 strain)) |
| --- | --- | --- | --- | --- | --- | --- |
| CCO [Ethanol] | 1.1 | <0.67 | 3.33 | – | – | – |
| NC(=O)c1ncn([C@@H]2O[C@H](CO)[C@@H](O)[C@H]2O)n1 [Ribavirin, ribavirin] | – | – | – | >320 | >590 | 14 |
